Data from patent US20220348590A1, “CYCLOOXYGENASE-2 INHIBITORS AND USES THEREOF” (The Board Institute, Inc., priority 2019, published 2022).
Entries after “also recorded” stand apart in the source; their conditions may differ.

How the values were obtained:
COX2 [1] = target: T1, COX2 (Rattus norvegicus, UniProt P35355); test: in-vitro autoradiography in rat brain slices (self-block); type: binding; details: rat brain slices in vitro autoradiography, self-block, compared to earlier tracers
T1 construct: in-vitro autoradiography in rat brain slices; from tissue; host or cells: rat brain slices
T1 sequence (P35355 18-604): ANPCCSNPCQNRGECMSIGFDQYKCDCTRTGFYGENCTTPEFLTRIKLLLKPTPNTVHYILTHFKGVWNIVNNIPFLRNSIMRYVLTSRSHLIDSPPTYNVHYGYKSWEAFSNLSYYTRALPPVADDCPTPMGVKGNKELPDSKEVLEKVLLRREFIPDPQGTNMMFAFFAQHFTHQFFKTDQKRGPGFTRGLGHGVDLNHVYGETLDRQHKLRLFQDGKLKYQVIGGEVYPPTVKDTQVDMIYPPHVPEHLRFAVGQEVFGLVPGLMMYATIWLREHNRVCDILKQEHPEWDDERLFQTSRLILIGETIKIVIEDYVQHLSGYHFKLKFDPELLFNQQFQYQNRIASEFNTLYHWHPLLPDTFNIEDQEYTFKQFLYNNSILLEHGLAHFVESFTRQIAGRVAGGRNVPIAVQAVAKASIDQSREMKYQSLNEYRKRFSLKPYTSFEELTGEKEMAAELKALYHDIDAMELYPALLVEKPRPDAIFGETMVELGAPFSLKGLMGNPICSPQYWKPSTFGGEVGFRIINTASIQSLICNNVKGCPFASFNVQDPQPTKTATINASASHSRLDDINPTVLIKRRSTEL
From the text: Three ligands have been evaluated with in-vitro autoradiography in rat brain slices. Radiolabeling was accomplished via methylation of either a sulfinate precursor ([^11C]Rofecoxib), hydroxyl precursor ([^11C]MC1) or thiol precursor ([^11C]98) using [^11C]-methyl iodide and offers chemical flexibility for radiolabeling of future candidates. […] This translated into a ˜2-fold increase in COX2 specific binding in a rat brain slice in-vitro autoradiography. […] These properties enable us to better understand the contribution of potency and free fraction to the ligand's specific binding.
Three newly synthesized COX2 ligands were successfully radiolabeled using this strategy and first evaluated by in-vitro autoradiography in rat brain slices using self-block experiments (FIG. 5). […] [^11C]36 was also evaluated for specific binding using self-block experiments in human post-mortem brain tissues (globus pallidus) from three Huntington's disease (HD) patients (FIG. 6). COX2 protein levels were quantified using immunostaining and defined as high, medium and low, respectively.

[2] = PET imaging in non-human primate (baboon); type: in vivo
From the text: This ideal pharmacokinetic profile in non-human primate positions these two optimized lead radiotracers for further evaluation using kinetic modeling with an arterial plasma input function and correction for plasma fraction unbound to obtain total volume of distribution (VT), the gold standard measure for PET quantification.

COX2 [3] = target: T1, COX2; test: rat in-vivo PET imaging (brain pharmacokinetics, self-block)

specific binding (COX2 [1]): significantly increased specific binding
specific binding in vivo (COX2 [3]; rat PET, self-block experiment, between 30-60 minutes): modest but consistent specific binding
SMILES: CS(=O)(=O)c1ccc(-c2cccc(NCc3ccoc3)n2)cc1 [[^11C]47]
brain uptake and clearance [2]: high, fast and homogeneous brain uptake along with fast clearance; also recorded: high, rapid and homogeneous brain uptake followed by fast clearance
brain pharmacokinetic (brain uptake and clearance) (COX2 [3]; rat in-vivo PET imaging): high and rapid brain uptake followed by fast clearance
